Consider twelve compounds from the OPERA property sets (Mansouri et al. 2018).

Structures are written as SMILES. In brackets after ≈: the same amount, converted by molar mass.

For the series the following is noted: 25 °C.

Turning to `C=C`, the solubility is 4670 µM (≈ 131 µg/mL). The result for `C1CCCCC1` reads 654 µM (≈ 55 µg/mL); that for `C#CC`, 90800 µM (≈ 3640 µg/mL). The result for `C=CC=C` reads 13600 µM (≈ 735 µg/mL). Next, `Cc1ccc(C)c(C)c1`: 474 µM (≈ 57 µg/mL). `C=CC(=C)C` had a solubility of 9340 µM (≈ 636 µg/mL).

`CCCCCC` yielded a solubility of 110 µM (≈ 9.5 µg/mL).

With `CCCC`, the solubility came to 1050 µM (≈ 61.2 µg/mL). Next, `C=CCC`: 3940 µM (≈ 221 µg/mL); `C=CC`: 4750 µM (≈ 200 µg/mL); `C1CCCCCCC1`: 70.4 µM (≈ 7.9 µg/mL).

For the compound `CC1CCCC1`, the solubility came out at 499 µM (≈ 42 µg/mL).
